# Measurements taken from article PMC7144022, “Quinolinecarboxamides Inhibit the Replication of the Bovine Viral Diarrhea Virus by Targeting a Hot Spot for the Inhibition of Pestivirus Replication in the RNA-Dependent RNA Polymerase” (Molecules, 2020).
# What was measured:
# [1] = Cytotoxicity assay, proliferation of exponentially growing MDBK cells (MTS/PMS); assay type: cell-based, bovine; details: bovine
# Method: Assays were carried out, as described previously.
# [2] = system: BVDV NADL virus; experiment: CPE-based antiviral assay, BVDV NADL in MDBK cells (MTS/PMS); details: for EC50: Bovine viral diarrhea virus isolates and strains, MDBK, 72 h; for S.I.: selectivity index, CC50 vs EC50
# [3] = sheet CSFCI#, potency relative to TO505-6180 (EC50 0.07 µM)
# [4] = sheet CSFCII#, potency relative to TO502-2403 (EC50 0.2 µM)
SMILES,CC50 at 5 days [1],EC50 [2],S.I. [2],"fold increase [2, 3]","fold increase [2, 4]"
"O=C(Nc1nc2ccc(Cl)cc2s1)c1cc(-c2ccccc2)nc2ccccc12 [CSFC-10, Clc1ccc2nc(NC(=O)c3cc(nc4ccccc43)c3ccccc3)sc2c1]",> 100 µM,0.5 µM,200,0.14,
"O=C(Nc1ccn(-c2ccccc2)n1)c1cc(-c2ccccc2Cl)nc2ccccc12 [CSFC-111, Clc1ccccc1c3nc2ccccc2c(c3)C(=O)Nc4ccn(n4)c5ccccc5]",> 100 µM,0.4 µM,250,,0.50
"O=C(Nc1ccn(-c2ccccc2)n1)c1cc(-c2ccncc2)nc2ccccc12 [CSFC-121, O=C(Nc1ccn(n1)c1ccccc1)c1cc(nc2ccccc21)c1ccncc1]",> 100 µM,100 µM,1,,0.002
"Cc1cccc2sc(NC(=O)c3cc(-c4ccc(F)cc4)nc4ccccc34)nc12 [CSFC-66, Fc1ccc(cc1)c3nc2ccccc2c(c3)C(=O)Nc4nc5c(C)cccc5s4]",> 100 µM,0.2 µM,500,,1.00
"Cc1cccc2sc(NC(=O)c3cc(-c4cc(Cl)sc4Cl)nc4ccccc34)nc12 [CSFC-85, Clc1cc(c(Cl)s1)c3nc2ccccc2c(c3)C(=O)Nc4nc5c(C)cccc5s4]",> 100 µM,0.3 µM,333,,0.67
"O=C(Nc1ccn(-c2ccccc2)n1)c1cc(-c2ccc(F)cc2)nc2ccc(F)cc12 [CSFC-123, Fc1ccc(cc1)c3nc2ccc(F)cc2c(c3)C(=O)Nc4ccn(n4)c5ccccc5]",> 100 µM,0.3 µM,333,,0.67
"O=C(Nc1ccn(-c2ccccc2)n1)c1cc(-c2cccnc2)nc2ccccc12 [CSFC-99, O=C(Nc1ccn(n1)c1ccccc1)c1cc(nc2ccccc21)c1cccnc1]",72 µM,53.6 µM,1,,0.00373
"Cc1ccc2nc(NC(=O)c3cc[n+]([O-])cc3)sc2c1 [CSFC-27, [O-][n+]1ccc(cc1)C(=O)Nc1nc2ccc(C)cc2s1]",> 100 µM,> 100 µM,1,0.0007,
"O=C(Nc1nc2ccc(F)cc2s1)c1cc(-c2ccccc2)nc2ccccc12 [CSFC-18, Fc1ccc2nc(NC(=O)c3cc(nc4ccccc43)c3ccccc3)sc2c1]",> 100 µM,0.3 µM,333,0.23,
"COc1cccc2sc(NC(=O)c3cc(-c4cccs4)nc4ccccc34)nc12 [CSFC-89, COc1cccc2sc(nc12)NC(=O)c4cc(nc3ccccc34)c5cccs5]",> 100 µM,0.6 µM,167,,0.33
"O=C(Nc1ccn(-c2ccccc2)n1)c1cc(-c2ccccc2F)nc2c(F)cccc12 [CSFC-102, Fc1ccccc1c3nc2c(cccc2F)c(c3)C(=O)Nc4ccn(n4)c5ccccc5]",> 100 µM,0.3 µM,333,,0.67
"O=C(Nc1nc2c(F)cccc2s1)c1cc(-c2ccccc2)nc2ccccc12 [CSFC-150, Fc1cccc2sc(nc12)NC(=O)c1cc(nc2ccccc21)c1ccccc1]",8 ± 1 µM,0.1 µM,80,0.70,
"Cc1ccc(-c2cc(C(=O)Nc3nc4c(C)cccc4s3)c3ccccc3n2)cc1 [CSFC-120, Cc1ccc(cc1)c3nc2ccccc2c(c3)C(=O)Nc4nc5c(C)cccc5s4]",> 100 µM,0.2 µM,500,,1.00
"O=C(Nc1nc2cc(F)ccc2s1)c1cc(-c2ccco2)nc2ccccc12 [CSFC-54, Fc1cc2nc(sc2cc1)NC(=O)c4cc(nc3ccccc34)c5ccco5]",> 100 µM,100 µM,1,,0.002
"O=C(Nc1nc2cc(Cl)ccc2o1)c1cc(-c2ccccc2)nc2ccccc12 [CSFC-5, Clc1cc2nc(NC(=O)c3cc(nc4ccccc43)c3ccccc3)oc2cc1]",> 100 µM,> 100 µM,1,0.0007,
"COc1ccc2nc(NC(=O)c3cc(-c4ccsc4)nc4ccccc34)sc2c1 [CSFC-82, O=C(c2cc(nc1ccccc12)c3ccsc3)Nc4nc5ccc(cc5s4)OC]",> 100 µM,0.2 µM,500,,1.00
"Cc1csc(-c2cc(C(=O)Nc3nc4c(C)cccc4s3)c3ccccc3n2)c1 [CSFC-50, Cc1cc(sc1)c3nc2ccccc2c(c3)C(=O)Nc4nc5c(C)cccc5s4]",> 100 µM,1.9 µM,53,,0.11
"O=C(Nc1ccccc1O)c1cc(-c2ccccc2)nc2ccccc12 [CSFC-137, Oc1ccccc1NC(=O)c1cc(nc2ccccc12)c1ccccc1]",> 100 µM,> 100 µM,1,0.0007,

SMILES,CC50 at 5 days [1],EC50 [2],S.I. [2],"fold increase [2, 3]","fold increase [2, 4]"
"O=C(Nc1ccncc1)c1cc(-c2ccccc2)nc2ccccc12 [CSFC-8, O=C(Nc1ccncc1)c1cc(nc2ccccc21)c1ccccc1]",> 100 µM,> 100 µM,1,0.0007,
"O=C(Nc1ccn(-c2ccccc2)n1)c1cc(-c2ccccc2F)nc2ccccc12 [CSFC-76, Fc1ccccc1c3nc2ccccc2c(c3)C(=O)Nc4ccn(n4)c5ccccc5]",> 100 µM,0.1 µM,1000,,2.00
"Cc1cc(NC(=O)c2cc(-c3ccccc3)nc3ccccc23)on1 [CSFC-41, O=C(Nc1cc(C)no1)c3cc(nc2ccccc23)c4ccccc4]",> 100 µM,34.6 µM,3,,0.00578
"Cc1cccc2sc(NC(=O)c3cc(-c4cccn4C)nc4ccccc34)nc12 [CSFC-88, Cn1cccc1c3nc2ccccc2c(c3)C(=O)Nc4nc5c(C)cccc5s4]",> 100 µM,0.2 µM,500,,1.00
"O=C(Nc1ccn(-c2ccccc2F)n1)c1cc(-c2ccccc2)nc2ccccc12 [CSFC-125, Fc1ccccc1n2ccc(n2)NC(=O)c4cc(nc3ccccc34)c5ccccc5]",> 100 µM,1.6 µM,63,,0.13
"COc1ccc2nc(NC(=O)c3cc(-c4cc(C)oc4C)nc4ccccc34)sc2c1 [CSFC-86, O=C(c2cc(nc1ccccc12)c3cc(oc3C)C)Nc4nc5ccc(cc5s4)OC]",> 100 µM,0.3 µM,333,,0.67
"O=C(Nc1ccn(-c2cccc(Cl)c2)n1)c1cc(-c2ccccc2)nc2ccccc12 [CSFC-132, Clc1cccc(c1)n2ccc(n2)NC(=O)c4cc(nc3ccccc34)c5ccccc5]",> 100 µM,0.02 µM,,,10.00
"Cc1ccc(-c2cc(C(=O)Nc3ccn(-c4ccccc4)n3)c3ccccc3n2)o1 [CSFC-51, Cc1ccc(o1)c3nc2ccccc2c(c3)C(=O)Nc4ccn(n4)c5ccccc5]",> 100 µM,15.2 µM,7,,0.0132
"CS(=O)(=O)c1ccc2nc(NC(=O)c3cc(-c4ccccc4)nc4ccccc34)sc2c1 [CSFC-56, CS(=O)(=O)c1ccc2nc(sc2c1)NC(=O)c4cc(nc3ccccc34)c5ccccc5]",> 100 µM,100 µM,1,,0.002
"O=C(Nc1ccn(-c2ccccc2)n1)c1cc(-c2ccc3ccccc3c2)nc2ccccc12 [CSFC-146, O=C(c2cc(nc1ccccc12)c3cc4ccccc4cc3)Nc5ccn(n5)c6ccccc6]",> 100 µM,0.03 µM,3333,,6.67
"O=C(Nc1ccn(-c2ccccc2)n1)c1cc(-c2cccs2)nc2ccccc12 [CSFC-47, O=C(Nc1ccn(n1)c2ccccc2)c4cc(nc3ccccc34)c5cccs5]",> 100 µM,1.7 µM,59,,0.12
"O=C(Nc1ccn(-c2ccccc2)n1)c1cc(-c2ccc(F)cc2)nc2ccccc12 [CSFC-70, Fc1ccc(cc1)c3nc2ccccc2c(c3)C(=O)Nc4ccn(n4)c5ccccc5]",> 100 µM,0.1 µM,1000,,2.00
"O=C(Nc1nc(-c2ccccc2)cs1)c1cc(-c2ccccc2)nc2ccccc12 [CSFC-60, O=C(Nc1nc(cs1)c2ccccc2)c4cc(nc3ccccc34)c5ccccc5]",> 100 µM,0.7 µM,143,,0.29
"O=C(Nc1nnc(-c2ccccc2)s1)c1cc(-c2cccs2)nc2ccc(F)cc12 [CSFC-106, O=C(Nc1nnc(s1)c2ccccc2)c4cc(nc3ccc(F)cc34)c5cccs5]",> 100 µM,2.3 µM,43,,0.09
"Cc1cccc2sc(NC(=O)c3cc(-c4ccccc4Cl)nc4ccccc34)nc12 [CSFC-113, Clc1ccccc1c3nc2ccccc2c(c3)C(=O)Nc4nc5c(C)cccc5s4]",> 100 µM,0.4 µM,250,,0.50
"O=C(Nc1ccn(-c2ccccc2)n1)c1cc(-c2cc3ccccc3o2)nc2ccccc12 [CSFC-92, O=C(Nc1ccn(n1)c2ccccc2)c3cc(nc4ccccc34)c5cc6ccccc6o5]",> 100 µM,0.3 µM,333,,0.67
"Cc1ccc2nc(NC(=O)c3ncc[nH]3)sc2c1 [CSFC-30, Cc1ccc2nc(NC(=O)c3ncc[NH]3)sc2c1]",> 100 µM,> 100 µM,1,0.0007,
"Cc1ccc2nc(NC(=O)c3cc4ccccc4n3C)sc2c1 [CSFC-26, Cn1c2ccccc2cc1C(=O)Nc1nc2ccc(C)cc2s1]",> 100 µM,> 100 µM,1,0.0007,
